Measurements as given in ChEMBL document CHEMBL3745636, “Dibenz[b,f]oxepin and Antimycobacterial Chalcone Constituents of Empetrum nigrum” (J Nat Prod, 2015).
Values after ≈ are worked out from the molar mass of the structure shown.

How the values were obtained:
HEK293 = experiment: Cytotoxicity against human HEK293 cells assessed as cell viability after 24 hrs by cell titer-blue assay; format: cell-based; conditions: HEK293, 24 h
[1] = test system: Mycobacterium tuberculosis; experiment: Antimycobacterial activity against Mycobacterium tuberculosis H37Ra ATCC 25177 assessed as growth inhibition after 24 to 168 hrs by microplate resazurin assay; format: functional, organism-based

Row | SMILES | IC50 (HEK293) | IC50 [1] | MIC90 [1]
1 | COc1cc(CCc2ccccc2O)cc(O)c1OC | 298 µM | 900 µM | > 1460 µM
2 | COc1cc2c(c(O)c1OC)Oc1ccccc1CC2 | 355 µM | 105 µM | 367 µM (≈ 99.9 µg/mL)
3 | COc1c(O)cc2c(c1OC)-c1c(O)cccc1CC2 | 289 µM | 113 µM | 734 µM (≈ 200 µg/mL)
4 | COc1c(O)cc2c(c1OC)Oc1ccccc1CC2 | 167 µM | 94.4 µM | 367 µM (≈ 99.9 µg/mL)
5 | COc1cc(CCc2ccccc2O)cc(OC)c1OC | 113 µM | 179 µM | 694 µM (≈ 200 µg/mL)
6 | O=C(CCc1ccccc1)c1ccc(O)cc1O | 249 µM | 32.8 µM | 206 µM (≈ 49.9 µg/mL)
7 | O=C(/C=C/c1ccccc1)c1ccc(O)cc1O [2',4'-DIHYDROXYCHALCONE] | 109 µM | 23.8 µM | 104 µM (≈ 25 µg/mL)
8 | CC1(C)CC[C@]2(CO)CC[C@]3(C)C(=CC[C@@H]4[C@@]5(C)CC[C@H](O)C(C)(C)[C@@H]5CC[C@]43C)[C@@H]2C1 [ERYTHRODIOL] | 613 µM | 157 µM | > 903 µM
9 | CC1(C)CC[C@]2(C(=O)O)CC[C@]3(C)C(=CC[C@@H]4[C@@]5(C)CC[C@H](O)C(C)(C)[C@@H]5CC[C@]43C)[C@@H]2C1 [OLEANOLIC_ACID] | 329 µM | 214 µM | > 876 µM
